In patent US8987481B1, “Method for isolation of bulk anthocyanidins and other bioactives” (priority 2013, dated 2015):

Assay: Storage stability of isolated anthocyanidins
Format: physicochemical
Procedure: The isolated anthos are stable when stored in amber bottles under argon at −20° C. […] However, when bound to cellulose, these compounds can be stabilized for a long period of time. Edible cellulose formulations that are used routinely in beverage and food industries are commercially available. Therefore, anthos isolated by the method described here can be readily stabilized with edible cellulose or pectin or other edible materials and used in beverages and foods to provide natural colors, as well as used as nutraceuticals and provide health benefits due to known antioxidant, antiproliferative and anticancer activities of anthos.

stability in solution form: highly unstable
Substance: anthocyanins
